Patent US8722731B2, “Furanyl compounds and the use thereof” (NovoMedix, LLC, priority 2010, dated 2014)
Read-outs that look alike come from different tables or passages of the source.

What was measured:
Nalm-6 = experiment: IC50 cell-based assay, suspension cells, Nalm-6; conditions: Homo sapiens, Leukemia, B-ALL, read-out: IC50 of Compounds in Suspension Cell Types
Protocol: (§1) In one embodiment, the IC50s of the compounds provided herein were determined in cell-based assays using adherent cells. In one embodiment, the activity of the compounds provided herein were determined in a cell-based assay using the triple negative breast cancer cell line MDA-MB-468. In one embodiment, the adherent cells used in the cell-based assays may be a cell type selected from Table 1. In one embodiment, the cell-based assay may be carried out as provided herein. On day 0, cells were seeded at 20,000 cells per well in 100 µL of media into individual wells of a 96-well tissue culture plate. The next day, compounds were diluted to twice the desired final concentration and added in 100 µL of media for a final volume of 200 μL. Standard solutions for each compound were prepared at 1000× concentration in DMSO. The highest concentration was 30 mM. Serial 1:1 dilutions were made from there for a 6- or 9-point curve (e.g., 30 mM, 15 mM, 7.5 mM, etc). Compounds were then diluted 1:500 in media, and 100 µL of the resulting solution was added to each well for a final dilution of 1:1000. Each concentration of compound was tested in triplicate. Cells were incubated at 37° C. with 5% CO2. After 72 hours, 20 μL of CellTiter 96 Aqueous One Solution Cell Proliferation Assay (Promega) was added to each well. Cells were placed back in the incubator, and the absorbance at 490 nm was read after 2-3 hours. The concentration of compound that decreased the number of metabolically active cells by 50% was determined and reported as the IC50. “Percent Viability” was determined by subtracting the average background value (media only) and expressed as a ratio to the average value obtained from cells treated with only DMSO.
(§2) In one embodiment, the IC50s of the compounds provided herein were determined in cell-based assays using suspension cells. In one embodiment, the activity of the compounds provided herein were determined in a cell-based assay using the JeKo-1 cell line (mantle cell lymphoma) or the Pfeiffer cell line (diffuse large B-cell lymphoma). In one embodiment, the suspension cells used in the cell-based assays may be a cell type selected from Table 2. Assays with suspension cells were similar except that 40,000-60,000 cells were added to each well and compounds were added immediately after cell plating.

HL-60 = experiment: IC50 cell-based assay, suspension cells, HL-60; conditions: Homo sapiens, Leukemia, AML, read-out: IC50 of Compounds in Suspension Cell Types
Protocol: as §1, §2

MDA-MB-231 = experiment: IC50 cell-based assay, adherent cells, MDA-MB-231; conditions: Homo sapiens, Breast, triple neg, 72 hours, read-out: IC50 of Compounds in Adherent Cell Types
Protocol: as §1

RT-4 = experiment: IC50 cell-based assay, adherent cells, RT-4; conditions: Homo sapiens, Bladder, papilloma, 72 hours, read-out: IC50 of Compounds in Adherent Cell Types
Protocol: as §1

Z138, JeKo-1 = experiment: IC50 cell-based assay, suspension cells, Z138, JeKo-1; conditions: Lymphoma, Mantle cell, read-out: IC50 of Compounds in Suspension Cell Types
Protocol: as §1, §2

H-460 = experiment: IC50 cell-based assay, adherent cells, H-460; conditions: Homo sapiens, NCI-H460, Lung, large cell carcinoma, 72 hours, read-out: IC50 of Compounds in Adherent Cell Types
Protocol: as §1

Panc-1 = experiment: IC50 cell-based assay, adherent cells, Panc-1; conditions: Homo sapiens, Pancreas, epitheloid carcinoma, 72 hours, read-out: IC50 of Compounds in Adherent Cell Types
Protocol: as §1

Pfeiffer = experiment: IC50 cell-based assay, suspension cells, Pfeiffer; conditions: Homo sapiens, Lymphoma, Diffuse large b-cell, read-out: IC50 of Compounds in Suspension Cell Types
Protocol: as §1, §2

Hep-G2 = experiment: IC50 cell-based assay, adherent cells, Hep-G2; conditions: Homo sapiens, HepG2, Liver, hepatocellular carcinoma, 72 hours, read-out: IC50 of Compounds in Adherent Cell Types
Protocol: as §1

SK-MEL-28 = experiment: IC50 cell-based assay, adherent cells, SK-MEL-28; conditions: Homo sapiens, Melanoma, 72 hours, read-out: IC50 of Compounds in Adherent Cell Types
Protocol: as §1

Kg1a = experiment: IC50 cell-based assay, suspension cells, Kg1a; conditions: Homo sapiens, KG-1a, Leukemia, AML, read-out: IC50 of Compounds in Suspension Cell Types
Protocol: as §1, §2

[1] = system: triple negative breast cancer cell line MDA-MB-468; experiment: IC50 cell-based assay, adherent cells, MDA-MB-468; conditions: Homo sapiens
Protocol: as §1
The IC50s of the compounds provided herein were determined in cell-based assay using triple negative breast cancer cell line MDA-MB-468.

MDA-MB-361 = experiment: IC50 cell-based assay, adherent cells, MDA-MB-361; conditions: Homo sapiens, Breast, Brain met Her2-neu + ER +, 72 hours, read-out: IC50 of Compounds in Adherent Cell Types
Protocol: as §1

[2] = Percent weight change of animals in MDA-MB-468 xenograft study; format: in vivo, Mouse/SCID; conditions: qd 20 mg/kg days 0 to 7, then qd 10 mg/kg day 8 and thereafter, IP, SCID mice
Protocol: In one embodiment, the effects of a compound provided herein on tumor growth in a mouse animal model were evaluated. In specific embodiments, the mouse animal model was the MDA-MB-468 xenograft model for breast cancer. Studies were performed to evaluate the effect of a compound provided herein on the growth of MDA-MB-468 breast tumors in mice. The test system that was used is summarized below:
Exemplary Protocol: Ten mice per group were inoculated s.c. on the left flank with 5×10^6 MDA-MB-468 cells. When tumors reached a mean volume of 100 or 200 mm^3, animals began treatment with a compound provided herein (See Table 4). Test article or vehicle were given once daily by IP injection for up to 21 days. Tumors were evaluated every Monday, Wednesday and Friday, body weights and condition were evaluated on a daily basis.
Animal Weight: All animals were weighed […] throughout the study. Group weight change was expressed as a daily group mean weight. Animals that lost greater than 20% of their total starting body weight were euthanized.
Compound 1 was dosed in mice at a dose of, for example, qd 50 mg/kg, for 22 days or more.
Compound 2 was dosed in mice at a dose of, for example, qd 20 mg/kg from day 0 to 7, then qd 10 mg/kg from day 8 and thereafter, for 22 days or more.

In the case of `O=C(Nc1cc(C(F)(F)F)cc(C(F)(F)F)c1)c1cc(-c2ccc(Cl)cc2)oc1C(F)(F)F` [Compound 2, 5-(4-Chlorophenyl)-N-(3,5-bistrifluoromethylphenyl)-2-trifluoromethylfuran-3-carboxamide], the IC50 (Nalm-6) is reported as < 5 µM, the IC50 (HL-60) is reported as < 5 µM and the IC50 (MDA-MB-231) is reported as < 5 µM. For the same molecule, the IC50 (RT-4) was > 20 µM, the IC50 (Z138, JeKo-1) was < 5 µM and the IC50 (H-460) was > 20 µM. The IC50 (Panc-1) was 5 to 10 µM, the IC50 (Pfeiffer) was < 5 µM and the IC50 (Hep-G2) was 5 to 10 µM. For the same molecule, the IC50 (SK-MEL-28) was 5 to 10 µM, the IC50 (Kg1a) was < 5 µM and the IC50 ([1]; MDA-MB-468, Breast, triple neg, 72 hours, Table 1, read-out: IC50 of Compounds in Adherent Cell Types) was < 5 µM. For the same molecule, the IC50 ([1]; MDA-MB-468 cells, Table 3, read-out: IC50 of Compounds in MDA-MB-468 Cells) was 1.5 µM, the IC50 (MDA-MB-361) was < 5 µM and the “Percent Weight Change of Control and Treated Animals, mean” value (from here on “Percent Weight Change”) ([2]; Day 1) was 0.00%. The “Percent Weight Change” value ([2]; Day 2) was −1.11%, the “Percent Weight Change” value ([2]; Day 3) was −2.65% and the “Percent Weight Change” value ([2]; Day 4) was −3.35%. For the same molecule, the “Percent Weight Change” value ([2]; Day 5) was −3.84%, the “Percent Weight Change” value ([2]; Day 6) was −1.98% and the “Percent Weight Change” value ([2]; Day 7) was −3.25%. For the same molecule, the “Percent Weight Change” value ([2]; Day 8) was −5.29%, the “Percent Weight Change” value ([2]; Day 9) was −3.91% and the “Percent Weight Change” value ([2]; Day 10) was −6.29%. The “Percent Weight Change” value ([2]; Day 11) was −3.98%, the “Percent Weight Change” value ([2]; Day 12) was −1.48% and the “Percent Weight Change” value ([2]; Day 13) was −1.39%. For the same molecule, the “Percent Weight Change” value ([2]; Day 14) was −2.75%, the “Percent Weight Change” value ([2]; Day 15) was −0.49% and the “Percent Weight Change” value ([2]; Day 16) was −1.04%. The “Percent Weight Change” value ([2]; Day 17) was −0.16%, the “Percent Weight Change” value ([2]; Day 18) was 0.96% and the “Percent Weight Change” value ([2]; Day 19) was −0.20%. For the same molecule, the “Percent Weight Change” value ([2]; Day 20) was −1.98%, the “Percent Weight Change” value ([2]; Day 21) was −0.19% and the “Percent Weight Change” value ([2]; Day 22) was −0.65%.
